In patent publication US10533018B2, “Antimicrobial prochelators to target drug-resistant bacteria and methods of making and using the same” (Duke University, priority 2015, dated 2020):
Like-named read-outs stand apart in the source and are kept apart here.

Assays:
[1] = test system: clinical isolates of Klebsiella pneumonia (Klebs); test: Broth microdilution in Klebs clinical isolates; assay type: cell-based; conditions: Klebsiella pneumoniae, LB broth
Description: (§1) Bacterial culture reagents including LB broth (Lennox), agar-agar, ampicillin, and ceftriaxone were purchased from Sigma Aldrich Corp. The Escherichia coli (E. coli) K12 strain HB101 and pGLO E. coli transformation kit purchased from Bio-Rad Laboratories Inc. HB101 was transformed with the bla gene via the pGLO plasmid. The bla gene encodes for a TEM-1 β-lactamase that imparts penicillin resistance to the mutant E. coli K-12 strain (+Bla). Strains E. coli UTI89, [27] pCOM-GFP-transformed E. coli UTI89 (pCOM-GFP), [28] and Methicillin-Resistant Staphylococcus aureus (MRSA) clone USA300 [29] have been previously described. The Extended-Spectrum β-Lactamase (ESBL) E. coli, Klebsiella pneumonia (Klebs), and Pseudomonas aeruginosa (Pseudo) strains were clinical isolates acquired deidentified from Duke Hospital and tested for antibiotic susceptibility in the Clinical Microbiology Laboratory using standard clinical susceptibility methods.
(§2) Cultures were incubated on LB (Lennox, Sigma) agar at 37° C. in ambient atmospheric composition. Before beginning an experiment, a single bacterial colony grown on LB agar was resuspended in 2 mL LB broth and incubated overnight to form a turbid cell suspension. The overnight culture was diluted 1:100 in LB and used immediately as the working culture. To assess the antibacterial activity of compounds, the working bacterial culture was aliquoted in a clear, flat-bottomed, 96-well polystyrene plate (Costar) and the compound of interest was added in 2-fold serial dilution from 500 to 1 μM. Plates were covered with a breathable sealing film (Aeroseal, Genesee Scientific) and incubated at 37° C. in ambient atmospheric composition with shaking at 200 rpm. Optical density at 600 nm was recorded after 4 h and 20 h for each well using a standard OD600 protocol with LB serving as the blank. The resulting dose-response curves were fit to a nonlinear regression in GraphPad Prism Version 6 to calculate the IC50 of DB4-51 in each strain.

+Bla K-12 E. coli = test: microbe, parasite or virus in culture; assay type: cell-based, Escherichia coli
Description: as §1, §2
(§3) The ability of DB4-162 to inhibit bacterial growth was assessed by a traditional broth microdilution method that assesses the turbidity of liquid cultures in the presence of varying concentrations of the compound. As described above for DB4-51, the antibacterial properties of the prochelator DB4-162 were assessed in non-pathogenic lab-strain HB101K-12 E. coli and compared to the pGLO-transfected mutant HB101K-12 E. coli that express β-lactamase. Clinically relevant pathogenic bacteria were also screened, including UTI89 E. coli, pCOM transfected UTI89 E. coli (pCOM), extended spectrum β-lactamase (ESBL) E. coli, methicillin-resistant Staphylococcus aureus (MRSA), and Klebsiella pneumonia (Klebs). In addition to being naturally resistant to many β-lactam antibiotics, MRSA can produce a number of β-lactamases. […] It should be noted that all of the bacteria tested are gram-negative except for gram-positive MRSA.
(§4) The goal of this screen was to calculate the IC50 of the prochelator in a series of pathogenic bacteria and compare these values to the IC50 of known antibiotics in those same strains to determine the relative effectiveness of DB4-162 against the drug-resistant and drug-susceptible bacteria in comparison to current antibiotic treatment options. Bacterial growth was monitored in LB broth at 37° C. in the presence and absence of DB4-162 for 20 hours. A concentration gradient of DB4-162 from 500 to 0 μM was used to screen all 7 strains of bacteria and the dose-response curves were fit to a […] to calculate the IC50 of DB4-162 in each strain. These IC50 values are an approximation of how effectively DB4-162 inhibits the growth of each bacterial strain in vitro.
(§5) IC50 values for ampicillin were calculated via broth microdilution in LB broth only. Values are listed as the mean followed by the 95% confidence interval about the mean. Mean and confidence intervals were calculated from a variable slope, nonlinear regression fit to the dose-response OD600 data. […]

pCOM E. coli = test: microbe, parasite or virus in culture; assay type: cell-based, Escherichia coli; conditions: for IC50: Escherichia coli, pCOM E. coli
Description: as §1, §2, §3, §4, §5

ESBL E. coli = test: microbe, parasite or virus in culture; assay type: cell-based, Escherichia coli; conditions: for IC50: ESBL E. coli
Description: as §1, §2, §3, §4, §5

−Bla K-12 E. coli = test: microbe, parasite or virus in culture; assay type: cell-based, Escherichia coli; conditions: −Bla K-12 E. coli
Description: as §1, §2, §3, §4, §5

[2] = Escherichia coli, +Bla K-12 E. coli, LB + 500 μM BCS
[3] = Escherichia coli, +Bla K-12 E. coli, LB broth
[4] = Escherichia coli, +Bla K-12 E. coli, LB + 10 μM CuCl2
[5] = Escherichia coli, LB + 500 μM BCS
[6] = Escherichia coli, LB + 10 μM CuCl2, read-out: IC50
[7] = Escherichia coli, LB + 500 μM BCS, read-out: IC50

Row | Structure (SMILES) | IC50 ([1]; Klebs Isolate 1) | IC50 ([1]; Klebs Isolate 2) | IC50 ([1]; Klebs Isolate 3) | IC50 ([1]; Klebs Isolate 4) | IC50 ([1]; Klebs Isolate 5) | IC50 ([1]; Klebs Isolate 6) | IC50 ([1]; Klebs Isolate 7) | IC50 ([1]; Klebs Isolate 8) | IC50 ([1]; Klebs Isolate 9) | IC50 ([1]; Klebs Isolate 10) | IC50 ([1]; Klebs Isolate 11) | IC50 ([1]; Klebs Isolate 12) | IC50 ([1]; Klebs Isolate 13) | IC50 (+Bla K-12 E. coli; [2]) | IC50 (+Bla K-12 E. coli; [3]) | IC50 (pCOM E. coli; LB + 10 μM CuCl2) | IC50 (pCOM E. coli; LB + 500 μM BCS) | IC50 (pCOM E. coli; LB broth) | IC50 (ESBL E. coli; Escherichia coli, LB broth) | IC50 (+Bla K-12 E. coli; [4]) | further results
1 | [O-][n+]1ccccc1S [PT, 2-mercaptopyridine N-oxide] | 10 µM | 5 µM | 21 µM | 9 µM | 11 µM | 6 µM | 10 µM | 10 µM | 9 µM | 5 µM | 6.5 µM | 8 µM | 11 µM | 0.019 µM | 0.006 µM | 0.004 µM | 0.007 µM | 0.002 µM | 0.005 µM | – | –
2 | CC1(C)S[C@@H]2[C@H](NC(=O)[C@H](N)c3ccccc3)C(=O)N2[C@H]1C(=O)O [Ampicillin] | 142 µM | > 500 µM | 55 µM | > 500 µM | 175 µM | 118 µM | > 500 µM | > 500 µM | > 500 µM | > 500 µM | 251 µM | 112 µM | > 500 µM | > 250 µM | – | – | – | – | – | > 250 µM | IC50 (+Bla K-12 E. coli; +Bla K-12 E. coli, LB broth): > 250 µM; IC50 (ESBL E. coli; LB broth): > 250 µM; IC50 (−Bla K-12 E. coli; LB broth, listed as ampicillin, read-out: IC50): 8 µM; IC50 (−Bla K-12 E. coli; LB broth, read-out: IC50): 0.008 µM
3 | O=C(Cc1ccccc1)N[C@@H]1C(=O)N2C(C(=O)O)=C(CSc3cccc[n+]3[O-])CS[C@H]12 [DB4-51, 2-((((6R,7R)-2-carboxy-8-oxo-7-(2-phenylacetamido)-5-thia-1-azabicyclo[4.2.0]oct-2-en-3-yl)methyl)thio)pyridine 1-oxide] | 25 µM | 45 µM | 163 µM | 133 µM | 49 µM | 47 µM | 9 µM | 30 µM | 10 µM | 150 µM | 34 µM | 52 µM | > 500 µM | 0.051 µM | – | – | – | – | – | – | change in IC50 value depending on Cu status (+Bla K-12 E. coli; +Bla K-12 E. coli, Cu replete vs Cu depleted): less than 4 fold; IC50 (+Bla K-12 E. coli; Escherichia coli, read-out: IC50 after pre-incubation with β-lactamase, +Bla K-12 E. coli, pre-incubated with β-lactamase): 8 µM; change in IC50 value depending on Cu status (pCOM E. coli; pCOM-GFP UTI89 E. coli, Cu replete vs Cu depleted): 10 fold; IC50 (ESBL E. coli; [5]): 0.017 µM; IC50 (−Bla K-12 E. coli; [6]): 0.015 µM; IC50 (−Bla K-12 E. coli; [7]): 0.038 µM; IC50 (−Bla K-12 E. coli; Escherichia coli, pre-incubated with β-lactamase, read-out: IC50 after pre-incubation with β-lactamase): 9 µM
4 | Cc1csc(=S)n1OCC1=C(C(=O)O)N2C(=O)[C@@H](NC(=O)Cc3ccccc3)[C@H]2SC1 [DB4-162, (6R,7R)-3-(((4-methyl-2-thioxothiazol-3(2H)-yl)oxy)methyl)-8-oxo-7-(2-phenylacetamido)-5-thia-1-azabicyclo[4.2.0]oct-2-ene-2-carboxylic acid] | – | – | – | – | – | – | – | – | – | – | – | – | – | 179 µM | 143 µM | 93 µM | 168 µM | 112 µM | 22 µM | 147 µM | IC50 (ESBL E. coli; Escherichia coli, LB + 10 μM CuCl2): 21 µM; IC50 (ESBL E. coli; [5]): 50 µM; IC50 in ESBL E. coli lower than in −Bla K-12 E. coli (ESBL E. coli; LB broth): 90%; IC50 (−Bla K-12 E. coli; [6]): 39 µM; IC50 (−Bla K-12 E. coli; [7]): 54 µM; IC50 (−Bla K-12 E. coli; Escherichia coli, LB broth, read-out: IC50): 227 µM
